Columns and labels:
full-length human BTK = full-length human BTK (Homo sapiens (Human), UniProt Q06187); assay: BTK IC50 Enzyme Assay (microfluidic off-chip mobility shift kinase assay); type: biochemical; conditions: Btk Enzymatic IC50 Assay, 90 min at 27 C;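 also: Read-out separates phosphorylated peptide product from substrate by their charge-to-mass difference, with IC50 fitted from log inhibitor concentration against percent enzyme activity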
Btk [1] = target: T1, Btk (Homo sapiens (Human), UniProt Q06187); assay: Btk PBMC IC50 Cell Assay (anti-IgM-induced CD69 expression on B cells); type: cell-based; conditions: anti-IgM-induced CD69 expression on CD19 positive cells in human PBMCs;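 also: freshly isolated human PBMCs, IC50 from concentration-response of the share of CD19+ cells expressing CD69 after anti-IgM BCR stimulation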
Btk [2] = target: T1, Btk; assay: Time Dependent Human Whole Blood IC50 Assay; type: cell-based; conditions: read-out: Assay C (IC50)

Sequence of full-length human BTK (Q06187 whole entry): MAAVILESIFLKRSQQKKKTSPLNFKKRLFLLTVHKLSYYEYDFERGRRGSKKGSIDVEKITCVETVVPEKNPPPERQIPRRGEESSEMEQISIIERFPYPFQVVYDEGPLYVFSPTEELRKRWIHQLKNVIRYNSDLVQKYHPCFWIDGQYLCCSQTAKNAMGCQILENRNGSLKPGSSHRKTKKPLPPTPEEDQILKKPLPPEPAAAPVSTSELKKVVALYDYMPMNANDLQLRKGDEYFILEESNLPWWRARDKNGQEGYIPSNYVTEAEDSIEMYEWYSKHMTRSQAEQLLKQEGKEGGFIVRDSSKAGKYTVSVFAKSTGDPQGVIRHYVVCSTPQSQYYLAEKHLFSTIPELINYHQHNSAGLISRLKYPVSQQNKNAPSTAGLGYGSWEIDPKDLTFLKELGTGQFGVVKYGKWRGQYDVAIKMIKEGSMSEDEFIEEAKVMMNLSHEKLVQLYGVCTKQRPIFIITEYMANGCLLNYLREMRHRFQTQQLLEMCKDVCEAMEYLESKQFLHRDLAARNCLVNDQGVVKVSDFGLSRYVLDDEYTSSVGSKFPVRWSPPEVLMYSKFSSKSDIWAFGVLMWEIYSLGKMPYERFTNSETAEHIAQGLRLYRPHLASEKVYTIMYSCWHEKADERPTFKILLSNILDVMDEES
T1 sequence (Q06187 whole entry): as above

IC50 (full-length human BTK) [µM] | IC50 (Btk [1]) [µM] | IC50 (Btk [2]) [µM] | Compound
< 0.001 | 0.01 to 0.1 | > 0.1 | Cc1nn(C2CCOCC2)c(C)c1-c1nc2c(-c3ccc4c(c3)CCCC4NC(=O)c3nc(C(C)(C)C)no3)ccnc2[nH]1 (stereo not drawn) [Compound 140, 3-tert-Butyl-[1,2,4]oxadiazole-5-carboxylic acid (6-{2-[3,5-dimethyl-1-(tetrahydro-pyran-4-yl)-1H-pyrazol-4-yl]-3H-imidazo[4,5-b]pyridin-7-yl}-1,2,3,4-tetrahydro-naphthalen-1-yl)-amide]
< 0.001 | 0.001 to 0.01 | 0.01 to 0.1 | Cc1nn(C)c(C)c1-c1nc2c(-c3ccc4c(c3)CCCC[C@H]4NC(=O)c3nnc(C(C)(C)C)o3)ccnc2[nH]1 [Compound 121, 5-tert-Butyl-[1,3,4]oxadiazole-2-carboxylic acid {(R)-2-[2-(1,3,5-trimethyl-1H-pyrazol-4-yl)-3H-imidazo[4,5-b]pyridin-7-yl]-6,7,8,9-tetrahydro-5H-benzocyclohepten-5-yl}-amide]
< 0.001 | 0.001 to 0.01 | 0.01 to 0.1 | Cc1c(-c2nc3c(-c4ccc5c(c4)CCC[C@@H]5NC(=O)c4noc(C(C)(C)C)n4)ccnc3[nH]2)cnn1C(C)C [Compound 165, 5-tert-Butyl-[1,2,4]oxadiazole-3-carboxylic acid {(S)-6-[2-(1-isopropyl-5-methyl-1H-pyrazol-4-yl)-3H-imidazo[4,5-b]pyridin-7-yl]-1,2,3,4-tetrahydro-naphthalen-1-yl}-amide]
< 0.001 | 0.001 to 0.01 | 0.001 to 0.01 | Cc1c(-c2nc3c(-c4ccc5c(c4)CCCC5NC(=O)c4noc(C(C)(C)C)n4)ccnc3[nH]2)cnn1C1CCOCC1 (stereo not drawn) [Compound 150, 5-tert-Butyl-[1,2,4]oxadiazole-3-carboxylic acid (6-{2-[5-methyl-1-(tetrahydro-pyran-4-yl)-1H-pyrazol-4-yl]-3H-imidazo[4,5-b]pyridin-7-yl}-1,2,3,4-tetrahydro-naphthalen-1-yl)-amide]
< 0.001 | 0.001 to 0.01 | 0.001 to 0.01 | Cn1cc(-c2nc3c(-c4ccc5c(c4)CCCC[C@H]5NC(=O)c4cc(C5(C)CC5)on4)ccnc3[nH]2)cn1 [Compound 56, 5-(1-Methyl-cyclopropyl)-isoxazole-3-carboxylic acid {(R)-2-[2-(1-methyl-1H-pyrazol-4-yl)-3H-imidazo[4,5-b]pyridin-7-yl]-6,7,8,9-tetrahydro-5H-benzocyclohepten-5-yl}-amide]
